Source: PubChem BioAssay (NCI)
Where “and” joins values, the source holds several entries; their conditions need not be identical. Identical values can stand only once.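 Dose response: 5 concentrations. Exposure: 48 h. Format: 96-well plates. Endpoint: linear interpolation; highest concentration if not reached. GI50 marks 50% less growth. TGI: concentration producing complete growth inhibition.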

System: MDA-MB-468 breast
Assay: inhibition of tumour cell growth, NCI panel, 48 h

First: COC(=O)[C@H]1CCCN1C(=O)[C@H]1CCCN1C(=O)[C@H](Cc1c[nH]c2ccccc12)NC(=S)Nc1cc(C(F)(F)F)cc(C(F)(F)F)c1
Second: CN1CCN(CCCOc2cccc3nc(Nc4ccc(Cl)c(C(F)(F)F)c4)ccc23)CC1
The GI50 of the first is 2.3-fold higher: 3680 nM for the first, 1600 nM for the second.

Going from NC(=S)c1c(N)n(C2OC(CO)C(O)C2O)c2ncnc(N)c12 (centres undefined) to COc1ccc(N(C)c2nc(N)nc3sc4c(c23)CCCC4)cc1, the GI50 falls from 135 nM to under 10 nM.

COc1cc(-c2nn(-c3cccc(NC(=O)c4ccc(Cl)c(C(F)(F)F)c4)c3)cc2-c2ccncc2)ccc1Cl and COc1ccc(N=N/C(C(=O)C(F)(F)F)=C(\O)c2ccc(Cl)cc2)cc1 are within 1.5-fold of each other in GI50: 2740 nM for the first, 1840 nM for the second.

First: CO[C@H]1C[C@@H]2CC[C@@H](C)[C@@](O)(O2)C(=O)C(=O)N2CCCC[C@H]2C(=O)O[C@H]([C@H](C)C[C@@H]2CC[C@@H](OCCO)[C@H](OC)C2)CC(=O)[C@H](C)C=C(C)[C@@H](O)[C@@H](OC)C(=O)[C@H](C)C[C@H](C)/C=C/C=C/C=C1C
Second: CCN1CCN(C(=O)[C@]23CCC(C)(C)C[C@@H]2C2=CC[C@@H]4[C@@]5(C)C/C(=C/c6ccncc6)C(=O)C(C)(C)[C@@H]5CC[C@@]4(C)[C@]2(C)CC3)CC1
The GI50 of the first is lower: under 11.7 nM for the first, 1430 nM for the second.

Going from CCCCCCCCCCCC[n+]1ccc2ccccc2c1 to Cn1cc(C2=C(c3cn(CCCCCSC(=N)N)c4ccccc34)C(=O)NC2=O)c2ccccc21, the GI50 rises from 206 nM to 1550 nM (7.5-fold).

Going from Cn1c(-c2c(N)n(CCCN3CCOCC3)c3nc(C#N)c(C#N)nc23)nc2ccccc21 to CC(=O)c1c(C)[nH]c(-c2nc3ccc(N4CCN(C)CC4)cc3[nH]2)c1-c1ccccc1, the GI50 falls from 4640 nM to 361 nM (13-fold).

Compared with COc1cc2nc3cc([N+](=O)[O-])ccc3c(NCCNCC(C)(C)O)c2cc1OC, Cn1ncc2ncc(-c3ccc4ncc(C#N)c(N5CCc6cc(F)c(Cl)cc65)c4c3)cc21 is 11-fold higher in GI50: 220 nM for the first, 2440 nM for the second.

Going from N#CC1c2ccccc2C=CN1C(=O)N(c1ccccc1)c1ccccc1 (centres undefined) to O=[N+]([O-])c1cccc(C2CC(c3ccccc3)=Nc3ccccc3S2)c1 (centres undefined), the GI50 rises from 1700 nM to 13400 nM (7.9-fold).

Going from Oc1[nH]c2ccccc2c1/C=c1/cc2c(c(-c3ccc(F)cc3)n1)=Nc1ccccc1-2 to O=c1oc2ccc(-c3ccc(F)cc3F)cc2c(=O)n1-c1ccc(F)c(F)c1, the GI50 rises from 282 nM to 1010 nM (3.6-fold).

Compared with CC[C@H](C)[C@H](NC(=O)CN(C)C)C(=O)N(C)[C@H](C[C@@H](OC(C)=O)c1nc(C(=O)NC23CC(C(=O)OC)(C2)C3)cs1)C(C)C, CN(CC(=O)N(Cc1ccc(C2CCCCC2)cc1)c1ccc(C(=O)O)cc1)S(=O)(=O)c1c(F)c(F)c(F)c(F)c1F is 14-fold higher in GI50: 130 nM for the first, 1760 nM for the second.

O=C(COc1cccc(/C=C2\CSc3ccccc3C2=O)c1)Nc1nccs1 and COC(=O)c1ccc(NC(=O)Oc2ccc(N(CCCl)CCCl)cc2)cc1 are within 1.5-fold of each other in GI50: 1590 nM for the first, 1220 nM for the second.

For CC(=O)[O][Hg][c]1c(C)c(C)cc(C)c1C, the GI50 was 793 nM.

Compared with COC(=O)[C@H]1CCCN1C(=O)[C@H]1CCCN1C(=O)[C@H](Cc1c[nH]c2ccccc12)NC(=S)Nc1cc(C(F)(F)F)cc(C(F)(F)F)c1, CC[C@H](C)[C@H](NC(=O)[C@H]1CCCCN1C)C(=O)N(C)[C@H](C[C@@H](OC(C)=O)c1nc(C(=O)N[C@@H](Cc2ccccc2)C[C@H](C)C(=O)O)cs1)C(C)C is 17000-fold lower in TGI: 68800 nM for the first, 3.98 nM for the second.

First: NC(=S)c1c(N)n(C2OC(CO)C(O)C2O)c2ncnc(N)c12 (centres undefined)
Second: Cn1c(-c2c(N)n(CCCN3CCOCC3)c3nc(C#N)c(C#N)nc23)nc2ccccc21
The TGI of the first is lower: 326 nM for the first, over 100000 nM for the second.

Going from COc1cc(-c2nn(-c3cccc(NC(=O)c4ccc(Cl)c(C(F)(F)F)c4)c3)cc2-c2ccncc2)ccc1Cl to CN1CCN(CCCOc2cccc3nc(Nc4ccc(Cl)c(C(F)(F)F)c4)ccc23)CC1, the TGI falls from over 32500 nM to 3220 nM.

First: CO[C@H]1C[C@@H]2CC[C@@H](C)[C@@](O)(O2)C(=O)C(=O)N2CCCC[C@H]2C(=O)O[C@H]([C@H](C)C[C@@H]2CC[C@@H](OCCO)[C@H](OC)C2)CC(=O)[C@H](C)C=C(C)[C@@H](O)[C@@H](OC)C(=O)[C@H](C)C[C@H](C)/C=C/C=C/C=C1C
Second: CCN1CCN(C(=O)[C@]23CCC(C)(C)C[C@@H]2C2=CC[C@@H]4[C@@]5(C)C/C(=C/c6ccncc6)C(=O)C(C)(C)[C@@H]5CC[C@@]4(C)[C@]2(C)CC3)CC1
The TGI of the first is 4.7-fold higher: 14900 nM for the first, 3140 nM for the second.

Compared with COc1ccc(N=N/C(C(=O)C(F)(F)F)=C(\O)c2ccc(Cl)cc2)cc1, COC(=O)c1ccc(NC(=O)Oc2ccc(N(CCCl)CCCl)cc2)cc1 is 1.7-fold higher in TGI: 5680 nM for the first, 9770 nM for the second.

Compared with CCCCCCCCCCCC[n+]1ccc2ccccc2c1, Cn1cc(C2=C(c3cn(CCCCCSC(=N)N)c4ccccc34)C(=O)NC2=O)c2ccccc21 is 6.8-fold higher in TGI: 808 nM for the first, 5460 nM for the second.

Compared with COc1cc2nc3cc([N+](=O)[O-])ccc3c(NCCNCC(C)(C)O)c2cc1OC, Cn1ncc2ncc(-c3ccc4ncc(C#N)c(N5CCc6cc(F)c(Cl)cc65)c4c3)cc21 is 17-fold higher in TGI: 614 nM for the first, 10600 nM for the second.

Going from N#CC1c2ccccc2C=CN1C(=O)N(c1ccccc1)c1ccccc1 (centres undefined) to O=[N+]([O-])c1cccc(C2CC(c3ccccc3)=Nc3ccccc3S2)c1 (centres undefined), the TGI rises from 3400 nM to 31200 nM (9.2-fold).

First: Oc1[nH]c2ccccc2c1/C=c1/cc2c(c(-c3ccc(F)cc3)n1)=Nc1ccccc1-2
Second: O=c1oc2ccc(-c3ccc(F)cc3F)cc2c(=O)n1-c1ccc(F)c(F)c1
The TGI of the first is 4.3-fold lower: 978 nM for the first, 4230 nM for the second.

Going from CC[C@H](C)[C@H](NC(=O)CN(C)C)C(=O)N(C)[C@H](C[C@@H](OC(C)=O)c1nc(C(=O)NC23CC(C(=O)OC)(C2)C3)cs1)C(C)C to CN(CC(=O)N(Cc1ccc(C2CCCCC2)cc1)c1ccc(C(=O)O)cc1)S(=O)(=O)c1c(F)c(F)c(F)c(F)c1F, the TGI falls from over 25000 nM to 3270 nM.

Going from CC(=O)c1c(C)[nH]c(-c2nc3ccc(N4CCN(C)CC4)cc3[nH]2)c1-c1ccccc1 to O=C(COc1cccc(/C=C2\CSc3ccccc3C2=O)c1)Nc1nccs1, the TGI falls from 9270 nM to 3150 nM (2.9-fold).

For CC(=O)[O][Hg][c]1c(C)c(C)cc(C)c1C, the TGI was 2150 nM.

With CC[C@H](C)[C@H](NC(=O)[C@H]1CCCCN1C)C(=O)N(C)[C@H](C[C@@H](OC(C)=O)c1nc(C(=O)N[C@@H](Cc2ccccc2)C[C@H](C)C(=O)O)cs1)C(C)C the GI50 was 0.378 nM and 1.65 nM.
With Cn1ncc(Cl)c1-c1cc(C(=O)N[C@H](CN)Cc2ccc(F)c(F)c2)oc1Cl the GI50 was < 16.9 nM and 19.4 nM.

Cn1ncc(Cl)c1-c1cc(C(=O)N[C@H](CN)Cc2ccc(F)c(F)c2)oc1Cl was tested, and the TGI was 282 nM and 458 nM.
